Source: US12492373B2, “Production method for nerve tissue” (Racthera Co., Ltd., priority 2014, dated 2025)

Experiments:
[1] = tested on: human iPS cells (1231A3 strain); experiment: Bright field observation of feeder-free cultured human iPS cells after preconditioning; type: cell-based
Experimental: As a specific example of preconditioning in step 1 of the production method of the present invention, the following operation was performed. First, the subconfluent human iPS cells (1231A3 strain) were washed with PBS, and dispersed into single cells by using TrypLE Select (manufactured by Life Technologies). Thereafter, the above human iPS cells dispersed into single cells were seeded in a plastic culture dish (manufactured by Iwaki) coated with Laminin 511-E8, […] (ROCK inhibiting substance, 10 μM). When a 6-well plate (manufactured by Iwaki, culture area 9.4 cm^2) was used as the above plastic culture dish, the number of plated cells for the above human iPS cells dispersed into single cells was set to 6×10^3. When a 60 mm dish (manufactured by Iwaki, culture area 21 cm^2) was used as the above plastic culture dish, the number of plated cells for the above human iPS cells dispersed into single cells was set to 13×10^3. One day after seeding, the medium was changed to StemFit medium free of Y27632. Thereafter, once in 1-2 days, the medium was changed to StemFit medium free of Y27632. Thereafter, the cells were cultured until 5 days after seeding, namely, one day before subconfluence (50% of culture area is covered with cells). Even when cultured for 6 days after seeding, similar results are shown. The human iPS cells one day before subconfluence in the above feeder-free culturing were subjected to feeder-free culturing in the presence of SB431542 (TGFβR inhibitor (TGFβRi), 5 μM) (step 1: preconditioning treatment, FIG. 1 “Precondition TGFβRi 24 hr”), or in the absence thereof (step 1: without precondition treatment, FIG. 1 “Control”) for 1 day. The bright field observation of cultured cells was performed under an inverted microscope (KEYENCE). […] As a preconditioning operation, subconfluent human iPS cells (1231A3 strain) were first washed with PBS, and dispersed into single cells by using TrypLE Select (manufactured by Life Technologies). […]

[2] = tested on: human iPS cells (1231A3 strain); experiment: Immunostaining of aggregate sections for neural tissue markers Nestin, TuJ1, PSA-NCAM; type: cell-based
From the text: Furthermore, cell aggregates on day 23 after the start of suspension culturing, which were produced from the above iPS cells that underwent a preconditioning treatment as a starting material (conditions of FIG. 5B) were fixed with 4% para-formaldehyde to prepare frozen sections. […] Furthermore, it could be confirmed from the analysis of serial sections, that the regions that could be determined to be neural tissue by morphology observation in the bright field under an inverted microscope were Nestin-positive, TuJ1-positive, and PSA-NCAM-positive (FIG. 5C-E).
Furthermore, the above cell aggregates on day 23 after the start of suspension culturing, which were produced from the above iPS cells that underwent a preconditioning treatment with TGFβR inhibitor (SB431542) or BMPR inhibitor (LDN193189) as a starting material were fixed with 4% para-formaldehyde to prepare frozen sections. […] Furthermore, it could be confirmed from the analysis of serial sections, that the regions that could be identified to be neural tissue by morphology observation in the bright field images were Nestin-positive, TuJ1-positive, and PSA-NCAM-positive (FIG. 8A-F).
Cell aggregates were prepared according to the method described in Example 10 by using, as a starting material, human iPS cells using Essential 8 medium as a feeder-free culturing, TGFβR inhibiting substance (SB431542) in step 1, and a Shh signal transduction pathway activating substance in step 2. The cell aggregates on day 18 after the start of suspension culturing were fixed with 4% para-formaldehyde to prepare frozen section. […] Furthermore, it could be confirmed from the analysis of serial sections, that the regions that could be identified to be neural tissue by morphology observation in the bright field images were Nestin-positive, TuJ1-positive, and PSA-NCAM-positive (FIG. 11).

[3] = 1 day in Essential 8 medium, SB431542 5 μM, LDN193189 100 nM, or both
[4] = Essential 8 medium, SB431542 in step 1, SAG in step 2, day 18
[5] = SB431542 5 μM or LDN193189 100 nM in step 1, SAG 300 nM in step 2, StemFit, day 23
[6] = LDN193189 100 nM in step 1, no SAG in step 2, StemFit, day 23

Compound: NC(=O)c1ccc(-c2nc(-c3ccc4c(c3)OCO4)c(-c3ccccn3)[nH]2)cc1 [SB431542, 4-(5-benzol[1,3]dioxol-5-yl-4-pyridin-2-yl-1H-imidazol-2-yl)-benzamide]
- morphology of human iPS cell [1, 3]: not largely influenced
- morphology of human iPS cell ([1]; SB431542 5 μM for 1 day during feeder-free culturing in StemFit medium): not largely influenced
- proportion of Nestin-positive cells in the total cells [2, 4]: about 30%
- proportion of PSA-NCAM-positive cells [2, 4]: about 70%
- proportion of TuJ1-positive cells in the total cells [2, 4]: about 70%
- proportion of Nestin-positive cells in the total cells [2, 5]: about 20%
- proportion of PSA-NCAM-positive cells [2, 5]: about 70%
- proportion of TuJ1-positive cells in the total cells [2, 5]: about 70%

Compound: c1ccc2c(-c3cnn4cc(-c5ccc(N6CCNCC6)cc5)cnc34)ccnc2c1 [LDN193189, 4-[6-(4-piperazin-1-ylphenyl)pyrazolo[1,5-a]pyrimidin-3-yl]quinoline]
- morphology of human iPS cell [1, 3]: not largely influenced
- proportion of Nestin-positive cells in the total cells [2, 6]: about 20%
- proportion of PSA-NCAM-positive cells in the total cells [2, 6]: about 70%
- proportion of TuJ1-positive cells in the total cells [2, 6]: about 70%
- proportion of Nestin-positive cells in the total cells [2, 5]: about 20%
- proportion of PSA-NCAM-positive cells [2, 5]: about 70%
- proportion of TuJ1-positive cells in the total cells [2, 5]: about 70%
